Test results as given in PubChem BioAssay (NCI).
“And” between values parts separate entries of the source, which are not always exact repeats. Equal values may be shown once.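 A five-concentration, 48-hour dose response in 96-well plates underlies each endpoint, interpolated linearly between surrounding concentrations. Abbreviation: GI50, concentration required for 50% inhibition of growth. TGI: concentration producing complete growth inhibition.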

Assays:
Assay in all cases: inhibition of tumour cell growth, NCI panel, 48 h
BT-549 breast = tested on: BT-549 breast
COLO 205 colon = tested on: COLO 205 colon
MDA-N = tested on: MDA-N
NCI-H460 lung = tested on: NCI-H460 lung
OVCAR-8 ovarian = tested on: OVCAR-8 ovarian
SK-MEL-28 melanoma = tested on: SK-MEL-28 melanoma
DLD-1 colon = tested on: DLD-1 colon
DMS 273 small cell lung = tested on: DMS 273 small cell lung
HCT-15 colon = tested on: HCT-15 colon
KM20L2 colon = tested on: KM20L2 colon
M19-MEL melanoma = tested on: M19-MEL melanoma
SNB-78 CNS = tested on: SNB-78 CNS
HL-60(TB) leukemia = tested on: HL-60(TB) leukemia

| SMILES | TGI (BT-549 breast) [µM] | TGI (COLO 205 colon) [µM] | TGI (MDA-N) [µM] | TGI (NCI-H460 lung) [µM] | TGI (OVCAR-8 ovarian) | TGI (SK-MEL-28 melanoma) [µM] | TGI (DLD-1 colon) | TGI (DMS 273 small cell lung) | TGI (HCT-15 colon) [µM] | TGI (KM20L2 colon) | TGI (M19-MEL melanoma) | TGI (SNB-78 CNS) | TGI (HL-60(TB) leukemia) [µM] | GI50 (BT-549 breast) [µM] | GI50 (HCT-15 colon) [µM] | GI50 (HL-60(TB) leukemia) [µM] | GI50 (NCI-H460 lung) [µM] | GI50 (OVCAR-8 ovarian) [µM] | GI50 (SK-MEL-28 melanoma) [µM] | GI50 (COLO 205 colon) [µM] |
| --- | --- | --- | --- | --- | --- | --- | --- | --- | --- | --- | --- | --- | --- | --- | --- | --- | --- | --- | --- | --- |
| NCCCCNOCCCN | > 100 | > 100 | > 100 | > 100 | > 100 µM | > 100 | – | – | – | – | – | – | – | – | – | – | – | – | – | – |
| C/C=C(/CCC1NCCc2c1[nH]c1ccccc21)[Si](C)(C)C (stereo not given) | – | 3.92 | – | – | > 100 µM and 24.4 µM | – | > 100 µM and 21.6 µM | > 100 µM and 13.5 µM | 18.5 | > 100 µM and 11.8 µM | > 100 µM and 10.1 µM | > 100 µM and 27 µM | – | – | – | – | – | – | – | – |
| C=CCN1C(=O)NC(=O)/C(=C/c2c3ccccc3cc3ccccc23)C1=O | – | 35.3 | – | 37 | 55 µM | 68.1 | 44.7 µM | 43.4 µM | – | – | > 100 µM | > 100 µM | – | – | – | – | – | – | – | – |
| O=c1[nH]c2ccccc2c2oc3ccccc3c12 | > 100 | > 100 | > 100 | > 100 | > 100 µM | > 100 | – | – | > 100 | – | – | – | – | – | – | – | – | – | – | – |
| O=S1(=O)C(=C(c2ccccc2)c2ccccc2)S(=O)(=O)c2ccccc21 | – | > 100 | – | > 100 | > 100 µM | > 100 | > 100 µM | > 100 µM | > 100 | > 100 µM | > 100 µM | 99.7 µM | > 100 | – | – | – | – | – | – | – |
| O=c1c(-c2ccccc2)c(SCCCN2CCCCC2)n(-c2ccccc2)c(=S)n1-c1ccccc1 | 35.5 | 36.8 | – | 31.5 | 37.9 µM | 33.2 | – | – | 38.7 | – | – | – | 38.6 | – | – | – | – | – | – | – |
| COC(=O)C(C)NP(=O)(OCc1cccc(Cn2cnc3c(N)ncnc32)c1)Oc1ccccc1 (stereo not given) | > 100 | – | – | > 100 | > 100 µM | > 100 | – | – | > 100 | – | – | – | > 100 | > 100 | > 100 | 46.8 | > 100 | > 100 | > 100 | – |
| O=c1c2ccccc2nc2n1CCc1c-2[nH]c2ccccc12 | – | 37.9 | 28.5 | – | 71.8 µM | 62.4 | – | – | – | – | – | – | > 100 | – | – | – | – | – | – | – |
| CCOC(=O)c1c(Cl)c2c(n1Cc1ccccc1)-c1oncc1CCC2 | – | > 100 | – | > 100 | – | – | – | – | > 100 | – | – | – | > 100 | – | 3.39 | 3.32 | 3.62 | – | – | 3.53 |
| COC(=O)C1=C(O)C(C(=O)OC)[C@@]2(O)[C@@H](C(=O)OC)[C@H](C)C[C@@H]1[C@@H]2C(=O)OC (stereo not given in full) | > 100 | – | 31.4 | 44.3 | – | > 100 | – | – | 92.6 | – | – | – | 73.8 | – | – | – | – | – | – | – |
| CC(C)(CCCCC(C)(C)NC1=NCCO1)NC1=NCCO1 | – | > 10 | > 10 | > 10 | > 10 µM | > 10 | – | – | > 10 | – | – | – | > 10 | – | – | – | – | – | – | – |
